Test results: paper PMC3365829 (ACS medicinal chemistry letters, 2012)

Assay: In vivo pharmacokinetics in mice
Conditions: mouse, iv, 3 mg/kg

clearance: 19.5 mL/min/kg
SMILES: CCCCNc1ncc2c(-c3ccc(F)cc3)nn(C[C@H]3CC[C@H](N)CC3)c2n1 [Compound 43]
